Laboratory results: patent US12495798B2, “Nicotinamide compound and herbicidal composition comprising compound” (KOREA RESEARCH INSTITUTE OF CHEMICAL TECHNOLOGY, priority 2019, dated 2025)

Key:
Type in all cases: in vivo
cocklebur = assay: Herbicidal activity test against upland field weeds (soil treatment test); parameters: key to Soil treatment herbicidal activity, Cocklebur: 0 (no control); 100 (complete control); details: 50 g ai/ha, scale 0 (no control) to 100 (complete control)
Summary of the method: (§1)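 Pre-emergence soil surface spray, day after sowing, into sandy loam pots with fertilizer; compounds at 50 or 75 g a.i./ha in 50% acetone, 0.1% Tween-20. Greenhouse at 30±5 °C, 14/10 h light/dark; visual control rated 0–100 against untreated after 14 days (21 if needed).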

black nightshade = assay: Herbicidal activity test against upland field weeds (foliar treatment test); parameters: key to Foliar treatment herbicidal activity, black nightshade: 0 (no control); 100 (complete control); details: 50 g ai/ha, scale 0-100
Summary of the method: (§2)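 Greenhouse-grown plants (30±5 °C, 14/10 h light/dark) foliar hand-sprayed with compound in 50% acetone, 0.1% Tween-20 at 50 or 75 g a.i./ha. Control visually scored 0 (none) to 100 (complete) versus untreated after 14 days, or 21 days if needed.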

cotton = assay: Phytotoxicity test for field crops (soil treatment test); parameters: key: 0 (no harm); 9 (complete withered)
Summary of the method: (§3)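 Each value is a 0–9 visual phytotoxicity grade from greenhouse pots (30±5° C, 14 h light/10 h dark). Sterilized soil of pH 6.1 was sprayed one day after sowing with 19˜300 g a.i./ha in 33% acetone containing 0.1% Tween-20, and injury was assessed at 10 and 20 days.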

rice = assay: as above; parameters: key: 0 (no harm); 9 (complete withered)
Summary of the method: as §3

corn = assay: as above; parameters: key: 0 (no harm); 9 (complete withered)
Summary of the method: as §3

wheat = assay: as above; parameters: key: 0 (no harm); 9 (complete withered)
Summary of the method: as §3

soybean = assay: as above; parameters: key: 0 (no harm); 9 (complete withered)
Summary of the method: as §3

velvetleaf = assay: Herbicidal activity test against upland field weeds (soil treatment test); parameters: key to Soil treatment herbicidal activity, velvet leaf: 0 (no control); 100 (complete control); details: 50 g ai/ha, scale 0 (no control) to 100 (complete control)
Summary of the method: as §1

sorghum [1] = assay: Herbicidal activity test against upland field weeds (foliar treatment test); details: 50 g ai/ha, scale 0-100; for plant injury at 50 g/ha: Sorghum
Summary of the method: as §2

sorghum [2] = assay: Herbicidal activity test against upland field weeds (soil treatment test); parameters: key to Soil treatment herbicidal activity, Sorghum: 0 (no control); 100 (complete control); details: 50 g ai/ha, scale 0 (no control) to 100 (complete control)
Summary of the method: as §1

quack grass = assay: Herbicidal activity test against upland field weeds (foliar treatment test); parameters: key to Foliar treatment herbicidal activity, quack grass: 0 (no control); 100 (complete control); details: 50 g ai/ha, scale 0-100
Summary of the method: as §2

fall panicum = assay: Herbicidal activity test against upland field weeds (soil treatment test); parameters: key to Soil treatment herbicidal activity, Fall panicum: 0 (no control); 100 (complete control); details: 50 g ai/ha, scale 0 (no control) to 100 (complete control); for pest or weed control at 50 g/ha: Panicum dichotomiflorum
Summary of the method: as §1

indian jointvetch = assay: as above; parameters: key to Soil treatment herbicidal activity, Indian jointvetch: 0 (no control); 100 (complete control); details: 50 g ai/ha, scale 0 (no control) to 100 (complete control)
Summary of the method: as §1

barnyard grass = assay: Herbicidal activity test against upland field weeds (foliar treatment test); details: 50 g ai/ha, scale 0-100; for pest or weed control at 50 g/ha: Echinochloa crus-galli
Summary of the method: as §2

[3] = 50 g ai/ha, Cotton (10 days after treatment)
[4] = 50 g ai/ha, Cotton (20 days after treatment)
[5] = 100 g ai/ha, Cotton (10 days after treatment)
[6] = 100 g ai/ha, Cotton (20 days after treatment)
[7] = 50 g ai/ha, Rice (10 days after treatment)
[8] = 50 g ai/ha, Rice (20 days after treatment)
[9] = 100 g ai/ha, Rice (10 days after treatment)
[10] = 100 g ai/ha, Rice (20 days after treatment)
[11] = 50 g ai/ha, Corn (10 days after treatment)
[12] = 50 g ai/ha, Corn (20 days after treatment)
[13] = 100 g ai/ha, Corn (10 days after treatment)
[14] = 100 g ai/ha, Corn (20 days after treatment)
[15] = 50 g ai/ha, Wheat (10 days after treatment)
[16] = 50 g ai/ha, Wheat (20 days after treatment)
[17] = 100 g ai/ha, Wheat (10 days after treatment)
[18] = 100 g ai/ha, Wheat (20 days after treatment)
[19] = 50 g ai/ha, Soybean (10 days after treatment)
[20] = 50 g ai/ha, Soybean (20 days after treatment)
[21] = 100 g ai/ha, Soybean (10 days after treatment)
[22] = 100 g ai/ha, Soybean (20 days after treatment)

SMILES	Soil treatment herbicidal activity, Cocklebur (cocklebur)	Foliar treatment herbicidal activity, black nightshade (black nightshade)	Soil treatment phytotoxicity, Cotton (cotton; [3])	Soil treatment phytotoxicity, Cotton (cotton; [4])	Soil treatment phytotoxicity, Cotton (cotton; [5])	Soil treatment phytotoxicity, Cotton (cotton; [6])	Soil treatment phytotoxicity, Rice (rice; [7])	Soil treatment phytotoxicity, Rice (rice; [8])	Soil treatment phytotoxicity, Rice (rice; [9])	Soil treatment phytotoxicity, Rice (rice; [10])	Soil treatment phytotoxicity, Corn (corn; [11])	Soil treatment phytotoxicity, Corn (corn; [12])	Soil treatment phytotoxicity, Corn (corn; [13])	Soil treatment phytotoxicity, Corn (corn; [14])	Soil treatment phytotoxicity, Wheat (wheat; [15])	Soil treatment phytotoxicity, Wheat (wheat; [16])	Soil treatment phytotoxicity, Wheat (wheat; [17])	Soil treatment phytotoxicity, Wheat (wheat; [18])	Soil treatment phytotoxicity, Soybean (soybean; [19])	Soil treatment phytotoxicity, Soybean (soybean; [21])	other results
Cn1nnnc1COc1nc(C(F)(F)F)ccc1C(=O)Nc1nnnn1C [Compound No. 1-1, N-(1-methyl-1H-tetrazol-5-yl)-2-((1-methyl-1H-tetrazol-5-yl)methoxy)-6-(trifluoromethyl)nicotinamide]	0	100	2	6	2	7	1	7	3	9	0	0	0	0	0	0	0	1	3	3	Soil treatment phytotoxicity, Soybean (soybean; [20]): 5; Soil treatment phytotoxicity, Soybean (soybean; [22]): 7; Soil treatment herbicidal activity, velvet leaf (velvetleaf): 100; plant injury at 50 g/ha (sorghum [1]): 70%; Soil treatment herbicidal activity, Sorghum (sorghum [2]): 0; Foliar treatment herbicidal activity, quack grass (quack grass): 0; pest or weed control at 50 g/ha (fall panicum): 98%; Soil treatment herbicidal activity, Indian jointvetch (indian jointvetch): 0; pest or weed control at 50 g/ha (barnyard grass): 98%
Cn1nnnc1NC(=O)c1ccc(C(F)(F)F)nc1OCc1nnnn1C(F)F [Compound No. 1-26, 2-((1-(difluoromethyl)-1H-tetrazol-5-yl)methoxy)-N-(1-methyl-1H-tetrazol-5-yl)-6-(trifluoromethyl)nicotinamide]	0	100	1	0	1	1	1	8	3	9	0	0	1	1	0	0	0	0	0	0	Soil treatment phytotoxicity, Soybean (soybean; [22]): 4; Soil treatment herbicidal activity, velvet leaf (velvetleaf): 100; plant injury at 50 g/ha (sorghum [1]): 70%; plant injury at 50 g/ha (sorghum [2]; Sorghum): 30%; Foliar treatment herbicidal activity, quack grass (quack grass): 0; pest or weed control at 50 g/ha (fall panicum): 60%; pest or weed control at 50 g/ha (indian jointvetch): 70%; pest or weed control at 50 g/ha (barnyard grass): 95%
Cn1nnnc1COc1nc(C(F)(F)F)ccc1C(=S)Nc1nnnn1C [Compound No. 1-43, N-(1-methyl-1H-tetrazol-5-yl)-2-((1-methyl-1H-tetrazol-5-yl)methoxy)-6-(trifluoromethyl)pyridin-3-carbothioamide]	0	100	0	1	1	2	5	5	7	9	0	0	1	0	0	0	3	3	0	0	Soil treatment phytotoxicity, Soybean (soybean; [20]): 0; Soil treatment phytotoxicity, Soybean (soybean; [22]): 0; pest or weed control at 50 g/ha (velvetleaf; Abutilon theophrasti, read-out: Soil treatment herbicidal activity, velvet leaf): 90%; plant injury at 50 g/ha (sorghum [1]): 60%; Soil treatment herbicidal activity, Sorghum (sorghum [2]): 0; pest or weed control at 50 g/ha (quack grass): 30%; Soil treatment herbicidal activity, Fall panicum (fall panicum): 0; Soil treatment herbicidal activity, Indian jointvetch (indian jointvetch): 0; pest or weed control at 50 g/ha (barnyard grass): 95%
Cn1ncnc1COc1nc(C(F)(F)F)ccc1C(=O)Nc1nnnn1C [Compound No. 1-45, 2-((1-methyl-1H-1,2,4-triazol-5-yl)methoxy)-N-(1-methyl-1H-tetrazol-5-yl)-6-(trifluoromethyl)nicotinamide]	0	100	1	4	3	5	9	9	9	9	0	0	1	0	0	0	0	0	0	0	Soil treatment phytotoxicity, Soybean (soybean; [20]): 0; Soil treatment phytotoxicity, Soybean (soybean; [22]): 0; Soil treatment herbicidal activity, velvet leaf (velvetleaf): 100; plant injury at 50 g/ha (sorghum [1]): 50%; Soil treatment herbicidal activity, Sorghum (sorghum [2]): 0; pest or weed control at 50 g/ha (quack grass): 40%; pest or weed control at 50 g/ha (fall panicum): 98%; Soil treatment herbicidal activity, Indian jointvetch (indian jointvetch): 0; pest or weed control at 50 g/ha (barnyard grass): 95%
Cn1cnc(COCc2nc(C(F)F)ccc2C(=O)Nc2nnnn2C)n1 [Compound No. 2-85]	25	100	0	0	2	0	0	0	1	0	0	0	0	0	0	0	0	0	2	3	Soil treatment phytotoxicity, Soybean (soybean; [20]): 0; Soil treatment phytotoxicity, Soybean (soybean; [22]): 0; Soil treatment herbicidal activity, velvet leaf (velvetleaf): 20; Foliar treatment herbicidal activity, Sorghum (sorghum [1]): 5; Soil treatment herbicidal activity, Sorghum (sorghum [2]): 0; Soil treatment herbicidal activity, Fall panicum (fall panicum): 20; Soil treatment herbicidal activity, Indian jointvetch (indian jointvetch): 55; Foliar treatment herbicidal activity, barnyard grass (barnyard grass): 99
